Like-named read-outs stand apart in the source and are kept apart here. Ends that are not written are not given here.
What was measured:
[1] = system: serum carboxypeptidases; test: Stability toward serum carboxypeptidases (incubation in normal human serum, HPLC); assay type: in vitro ADME; details: 37° C., 1 h
Description: FIG. 10. HPLC profiles of decapeptide analogs. FIG. 10A: HPLC of […] (peptide/Sequence I.D. No. 2); a=purified peptide; b=des-Arg peptide ([…]; Sequence I.D. No. 24); c=des-Arg peptide in saline, no incubation; d=des-Arg peptide in saline with incubation for 1 h at 37° C.; e=des-Arg peptide in normal human serum with incubation for 1 h at 37° C. FIG. 10B: HPLC of […]aR (Sequence I.D. No. 10); a=purified peptide; b=peptide in saline, no incubation; c=peptide in saline with incubation for 1 h at 37° C.; d=peptide in normal human serum with incubation for 1 h at 37° C. Solvent system 1: 70 mM triethylamine/phosphoric acid buffer, pH-2.3. Solvent system 2: 60% acetonitrile in the Solvent 1 buffer. Linear gradient of 30-50% solvent 2 at.1%/min, slope=1 ml/min, absorbance monitored at 214 nm.
Both peptides were incubated in normal human serum at 37° C. for 1 h and thereafter reanalyzed on HPLC.

[2] = biological target: T1, human neutrophils (PMN) (Homo sapiens, UniProt P21730); assay type: cell-based; details: human neutrophils; read-out: PMN Polarization EC50
T1 sequence (P21730 1-350): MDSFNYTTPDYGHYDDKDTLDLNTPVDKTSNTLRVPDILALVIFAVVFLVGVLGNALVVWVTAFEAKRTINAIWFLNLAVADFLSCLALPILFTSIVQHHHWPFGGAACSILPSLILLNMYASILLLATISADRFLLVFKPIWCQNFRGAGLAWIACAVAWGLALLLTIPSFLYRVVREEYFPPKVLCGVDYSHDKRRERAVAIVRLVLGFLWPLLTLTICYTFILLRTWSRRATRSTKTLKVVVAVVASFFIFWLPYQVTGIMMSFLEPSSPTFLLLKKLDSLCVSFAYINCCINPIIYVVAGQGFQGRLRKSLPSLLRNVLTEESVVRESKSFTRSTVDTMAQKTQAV
Description: Neutrophil polarization assays were conducted as described by Ember et al., 1992, supra. Human neutrophils (PMN) were prepared according to the procedure described by Dahinden et al. (1979), J. Immunol., 130: 857-862. The assay for measuring the effect of C5a analogs on PMN polarization was described by Haston & Shields (1985), J. Immunol. Methods, 81: 229-237. Briefly, PMN (1×10^6 cells/ml) were suspended in 10 mM 3- (N-morpholino) propane sulfonic acid (Sigma Chemical Co.) containing EBSS. […] After 10 minutes of incubation at room temperature, the cells were washed twice and stored until microscopic examination. Cells deviating from the typical spherical shape were visually scored as polarized. Results are expressed as percent of polarized cells per total cells counted (300 cells counted/sample).

[3] = system: guinea-pig platelets; test: Guinea-pig platelet aggregation assay; assay type: cell-based; details: for Platelet Aggreg (threshold concentration producing visible platelet aggregation): guinea-pig platelets, threshold response
Description: This assay was performed on platelets obtained from the arterial blood of anesthetized male Hartley guinea pigs according to previously published methods (Ember et al., 1992, supra). Briefly, platelet-rich plasma was prepared and diluted to 3×10^8 platelets/ml in 0.39% sodium citrate solution. Peptide samples were diluted in a stepwise fashion in 1.5-fold dilutions and placed in 96-well microplates. A […] peptide sample, […] of platelet-rich plasma, and one 3 mm glass bead were placed in each well. The plates were shaken horizontally at 100 rpm for 5 min at 37° C. Platelet aggregation was evaluated visually in an inverted microscope at 40× magnification. The greatest dilution of peptide producing visible aggregation was scored as the threshold concentration for activity. Natural C5a and C3a were included as internal standards. At least three independent duplicate determinations were conducted for every peptide.

[4] = biological target: T2, human fetal artery (Homo sapiens, UniProt P21730); test: Smooth muscle contraction of human fetal artery (spasmogenic assay); assay type: cell-based; details: for log potency ratio at the EC50 level compared to C5a / % of C5a potency: fetal artery; for % of C5a potency: from log potency ratio at EC50 level
T2 sequence (P21730 1-350): T1 sequence (P21730 1-350)
Description: (§1) Tissue strips were suspended in 2 ml organ baths, containing physiological salt solution (Krebs-Ringers solution: 118 mM NaCl, 4.7 mM KCl, 2.5 mM CaCl2, 25 mM NaHCO3, 1.2 mM KH2PO4, 1.2 mM MgSO4, 10 mM Glucose) maintained at 37° C., pH 7.4 and continuously aerated with a 95% CO2 mixture. Each tissue preparation was equilibrated for 1 hr prior to testing with peptides. All drugs were kept on ice during the procedure and isometric tensions were measured using strain-gauge transducers (Grass FT-03) with a computerized chart recording system (MacLab/8). After the contraction to each peptide reached a plateau, histamine (10 μM) was added to obtain the maximum tissue response. Because tachyphylaxis occurs rapidly to single doses of C5a or peptides, cumulative dose-response curves could not be obtained. Instead, the dose-response profile was compiled from multiple strips from each tissue. After exposing each strip to a single concentration of the peptide followed by supramaximal histamine, the response was expressed as a percentage of the maximal contraction to histamine. Full dose-response curves for C5a (human recombinant C5a; Sigma) or individual peptides were performed in each experiment for each tissue and the EC50 values (i.e., concentration of peptide producing 50t of the maximal response to each peptide) obtained by probit analysis. pD2 transforms [−log EC50 (M)] were calculated for each dose-response curve, and means ±SE obtained for each peptide.
Human umbilical cords were obtained from the Mater Misericordiae Hospital, South Brisbane, Queensland within minutes of delivery. The mid-section of the umbilical cord was cut from the placenta, placed in physiological salt solution and stored at 5° C. for up to 24 hrs. […] The fetal arteries were dissected out and cut into longitudinal strips. The intimal surface of the arteries was rubbed with a cotton bud to remove the endothelium. Strips approximately 2 cm×3 mm were suspended in organ baths under 20 mN of resting tension. Arterial strips were tested repeatedly with peptides following a 60 min drug-free period of rest between assays (Taylor et al. (1994), Inflammation, in press).

[5] = biological target: T1, human neutrophils (PMN); assay type: cell-based; details: human neutrophils, β-glucuronidase release; read-out: PMN Enzyme Release EC50
Description: The release of glucuronidase from human neutrophils was determined as described by Schroder et al. (1987), J. Immunol., 139: 3474-3483. Briefly, human neutrophils were pretreated with cytochalasin B (5 μg/ml, 10 min, 37° C.). The cells (10^6) were incubated in the presence of stimulants for 60 minutes at 37° C. in a final volume of 200 μl and then centrifuged. The supernatant was collected and 50 μl were incubated with 50 μl of 0.01 M P-nitrophenyl-β-D-glucuronide (in 0.1 M sodium acetate at pH 4 for 18 h) as triplicate determinations in 96-well microtiter plates (Corning). The reaction was stopped by addition of 100 μl of 0.4 M gly buffer at pH 10. The reaction developed color that was read at 405 nm in a Titertec Multiscan (MCC/340) ELISA reader. The β-glucuronidase released was expressed as the percentage of total enzyme in the cell that could be released by addition of 0.2% Triton X-100 (Pierce).

[6] = system: guinea-pig lung parenchyma; test: Smooth muscle contraction of guinea-pig lung parenchyma; assay type: cell-based; details: arithmetic mean
Description: as §1, with “Each” for “Tissue strips were suspended in 2 ml organ baths, containing physiological salt solution (Krebs-Ringers solution: 118 mM NaCl, 4.7 mM KCl, 2.5 mM CaCl2, 25 mM NaHCO3, 1.2 mM KH2PO4, 1.2 mM MgSO4, 10 mM Glucose) maintained at 37° C., pH 7.4 and continuously aerated with a 95% CO2 mixture. Each”

Q: What does the source list for `CSCC[C@H](NC(=O)[C@H](CC(=O)O)NC(=O)[C@H](CCCCN)NC(=O)[C@H](Cc1ccccc1)NC(=O)[C@H](CO)NC(=O)[C@@H](N)Cc1ccc(O)cc1)C(=O)N1CCC[C@H]1C(=O)N[C@@H](CC(C)C)C(=O)N[C@H](C)C(=O)N[C@@H](CCCNC(=N)N)C(=O)O` [peptide 10]?
A: cleavage of the C-terminal Arg [1]: none; EC50 [2]: 2.1 µM; Platelet Aggreg (threshold concentration producing visible platelet aggregation) [3]: 1.3 µM; potency relative to peptide 2 in platelet aggregation ([3]; more potent than peptide 2): about 18 fold; log potency ratio at the EC50 level compared to C5a [4]: 1.42±0.13; % of C5a potency [4]: 4%; potency relative to peptide 2 in spasmogenic activity ([4]; more potent than peptide 2): about 32 fold; EC50 [5]: 57.7 µM

Q: How did the EC50 [2] turn out when YSFKDMQLGR-OH [peptide 2] was run?
A: 4 µM

Q: What about the “Platelet Aggreg (threshold concentration producing visible platelet aggregation)” value [3] of the same molecule?
A: 22.9 µM

Q: What about the “log potency ratio at the EC50 level compared to C5a” value [4] of the same molecule?
A: 2.78±0.10

Q: What about the “% of C5a potency” value [4] of the same molecule?
A: 0.2%

Q: And the “potency relative to the C-terminal 19-mer of natural sequence” value ([4]; smooth muscle contraction of human fetal artery (FIG. 1))?
A: about 20 times

Q: What about the EC50 [5] of the same molecule?
A: 50 µM

Q: What about the EC50 [6] of the same molecule?
A: 28.4 µM
